Measured values from patent publication US20240024436A1, “METHOD FOR TREATING CANCER” (CHILDREN'S MEDICAL CENTER CORPORATION, priority 2022, published 2024).
“Also recorded” adds a separate entry of the source.

Assays:
[1] = target: T1, G6PD (Homo sapiens, UniProt P11413); assay: G6PD activity assay in colorectal cell lines treated with G6PDi; assay type: cell-based; details: HCT-15 and HT-29 treated with G6PDi at the indicated concentrations
T1 construct: endogenous in cells; host or cells: HCT-15 and HT-29 colorectal cancer cell lines
T1 sequence (P11413 whole entry): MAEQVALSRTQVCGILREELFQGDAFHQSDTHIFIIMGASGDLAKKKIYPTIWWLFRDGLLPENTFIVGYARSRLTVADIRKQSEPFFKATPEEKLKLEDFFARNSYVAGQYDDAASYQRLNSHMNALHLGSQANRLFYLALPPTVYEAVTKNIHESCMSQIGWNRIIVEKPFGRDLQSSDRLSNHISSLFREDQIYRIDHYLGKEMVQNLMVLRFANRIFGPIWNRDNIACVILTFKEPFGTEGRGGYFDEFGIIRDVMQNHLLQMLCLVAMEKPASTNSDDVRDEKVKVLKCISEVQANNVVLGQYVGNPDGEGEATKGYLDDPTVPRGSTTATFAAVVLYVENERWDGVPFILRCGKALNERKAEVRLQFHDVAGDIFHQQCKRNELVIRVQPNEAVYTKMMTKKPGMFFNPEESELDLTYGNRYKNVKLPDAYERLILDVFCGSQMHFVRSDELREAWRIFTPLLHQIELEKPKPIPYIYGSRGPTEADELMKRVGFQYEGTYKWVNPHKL
Description: (§1) FIG. 3a colorectal cell lines, HCT-15 and HT-29 were treated with small molecule inhibitor G6PDi at the indicated concentrations and activity of G6PD was assessed. FIGS. 3b-3c Colorectal cancer cell lines, HCT-15 (FIG. 3b) and […] (FIG. 3c) were treated with vehicle or G6PDi-1 (30 μM) and with the indicated doses of asparaginase. Relative viability was assessed by counting viable cells based on trypan blue vital dye staining, with cell counts normalized to those in cells with no-asparaginase controls.

[2] = tested on: colorectal cancer cell lines HCT-15 and HT-29; assay: Relative viability (trypan blue viable cell counts) with G6PDi-1 plus asparaginase; assay type: cell-based, human; details: G6PDi-1 30 μM with indicated doses of asparaginase
Description: as §1

[3] = tested on: Apc-deficient organoids with mutations of Tp53 and Kras; assay: Organoid viability (counting viable organoids); assay type: cell-based, mouse; details: 500 U/L asparaginase + 100 μM G6PDi-1, basal medium
Description: FIG. 4a Apc-deficient organoids with mutations of Tp53 and Kras were cultured in basal medium and treated with vehicle, asparaginase (500 U/L), G6PDi-1 (100 μM), or combo (500 U/L asparaginase+100 μM G6PDi-1). FIG. 4b Viability of organoids from FIG. 4a was assessed by counting viable organoids. Data is relative to vehicle treatment group.

[4] = tested on: NADP/NADPH ratio in HCT-15 cells; assay: NADP/NADPH ratio, NADP/NADPH Assay Kit (colorimetric, OD 450 nm); assay type: cell-based, human
Description: FIG. 8a, HCT-15 cells were transduced with the indicated shRNAs and with the indicated doses of asparaginase, and the ratio of NADP to NADPH was measured using the NADP/NADPH Assay Kit (abcam product #ab65349). Relative NADP/NADPH ratio was assessed by microplate reader based on colorimetric signals (OD 450 nm), with colorimetric signal normalized to those in shLuc cells with no-asparaginase controls. FIG. 8b, the colorectal cancer cell line HCT-15 was treated with vehicle, asparaginase (500 U/L), G6PDi-1 (30 μM) or combination treatment. […] was measured by NADP/NADPH Assay Kit (ab65349) in indicated cells. Relative NADP/NADPH ratio was assessed by microplate reader based on colorimetric signals (OD 450 nm), with colorimetric signal normalized to those in shLuc cells with no-asparaginase controls.

[5] = tested on: NADP/NADPH ratio in HCT-15 G6PD knock-out cells; assay: NADP/NADPH ratio by liquid chromatography/mass spectrometry in G6PD knock-out clones; assay type: cell-based, human; details: HCT-15 G6PD knock-out clones #1 and #2, asparaginase 500 U/L
Description: HCT-15 cells that were either G6PD wild-type (WT) parental cells, or G6PD knock-out clones #1 and #2, were treated by vehicle or asparaginase (500 U/L). NADP/NADPH ratio was measured by liquid chromatography/mass spectrometry, and levels are shown normalized to those in HCT-15 cells with no-asparaginase controls.

[6] = tested on: ROS levels in HCT-15 cells; assay: Reactive oxygen species levels, Cellular ROS Assay Kit; assay type: cell-based, human; details: G6PD deficient (shG6PD #1 and #2) HCT-15 cells, indicated doses
Description: HCT-15 cells were transduced with negative control shRNA (shLuciferase, shLuc) or with two distinct G6PD-targeting shRNAs (shG6PD #1 and #2), treated with asparaginase at the indicated doses, and reactive oxygen species (ROS) levels were assessed using the Cellular ROS Assay Kit (Abcam, product number ab113851) in shLuc (control). ROS levels were measured by fluorescence microplate reader, and were normalized to those in shLuc-transduced, no-asparaginase controls. […] Results are shown as means±SEM; n=3. ****P<0.0001.

[7] = tested on: HCT-15 colorectal cancer cells; assay: Relative viability of HCT-15 cells with CRISPR interference of RPIA and RPE, treated with asparaginase; assay type: cell-based, human; details: HCT-15 with dCas9-KRAB and guide RNAs targeting RPIA and RPE promoters
Description: HCT-15 colorectal cancer cells were transduced with a so-called CRISPR interference system, consisting of a dCas9-KRAB expression construct and guide RNAs targeting the promoters of RPIA and RPE, to inhibit expression of these enzymes. Cells were then treated with vehicle or asparaginase at the indicated doses. Relative viability was assessed by counting viable cells based on trypan blue vital dye staining, with cell counts normalized to those in cells with no-asparaginase controls.

[8] = tested on: HCT-15 colorectal cancer cell line; assay: Relative viability of G6PD knock-out HCT-15 clones treated with asparaginase; assay type: cell-based, human; details: G6PD knock-out (KO) clones of HCT-15 versus wild-type
Description: FIG. 5a, Western blot analysis of G6PD protein expression levels in parental HCT-15 cells (G6PD wild-type) and two distinct G6PD knock-out (KO) clones generated by CRISPR-Cas9 induced gene deletion. FIG. 5b, control (G6PD wild-type) or G6PD knockout (KO) clones of the HCT-15 colorectal cancer cell line were treated with asparaginase at the indicated doses, and relative cell viability was assessed by counting the number of live cells based on trypan blue vital dye staining, with cell counts normalized to those in cells with no-asparaginase controls.

[9] = tested on: mouse intestinal organoid models of colorectal cancer; assay: Subcutaneous AKP organoid tumors in immunodeficient mice, tumor volume; assay type: in vivo; details: G6pdx-deficient (shG6pdx) organoid tumors, asparaginase 1,000 U/kg
From the text: Left panel, Mouse intestinal organoids with Apc deficiency, Kras activating mutations, and Tp53 loss (so-called AKP organoids) were transduced with two distinct control shRNAs (shGFP and shLuciferase), or two distinct shRNAs targeting G6pdx (the mouse G6PD gene). Knockdown of G6pdx protein expression was confirmed by Western blot analysis.
Organoids were transduced with control (shLuc) and two distinct shG6pdx-targeting shRNAs (see FIG. 10), and injected subcutaneously into immunodeficient mice. After engraftment of tumors (defined as tumors reaching a volume of 150 mm3), mice were treated with vehicle (phosphate-buffered saline, PBS) or asparaginase (1,000 U/kg), and tumor volumes were followed. Asparaginase or PBS were re-dosed at the time points indicated by the black arrows.

Row | Substance | G6PD activity [1] | sensitivity to asparaginase (relative viability) [2] | asparaginase sensitivity in organoids (viable organoids relative to vehicle) [3] | relative NADP/NADPH ratio on G6PD inhibition ([4]; HCT-15 cells, G6PDi-1 30 μM) | relative NADP/NADPH ratio on asparaginase treatment ([4]; HCT-15 cells depleted of G6PD (shRNA or G6PDi-1 30 μM), asparaginase 500 U/L or indicated doses) | NADP/NADPH ratio on asparaginase treatment (LC/MS) [5] | reactive oxygen species levels on asparaginase treatment [6] | relative viability on asparaginase treatment [7] | asparaginase sensitivity (relative cell viability) [8] | tumor volume / therapeutic activity [9]
1 | G6PDi-1 | reduce G6PD activity | induce sensitivity to asparaginase | induce asparaginase sensitivity | increased | – | – | – | – | – | –
2 | asparaginase | – | – | – | – | further increased the NADP/NADPH ratio; also recorded: further increase of NADP/NADPH ratio | further increase of NADP/NADPH ratio | not further elevated | None of the differences were statistically significant | induces asparaginase sensitivity | tumor volumes were reduced; also recorded: significant therapeutic activity
